Assay results from paper PMC6479757, “Coralmycin Derivatives with Potent Anti-Gram Negative Activity Produced by the Myxobacteria Corallococcus coralloides M23” (Molecules, 2019).
Converted amounts (≈) assume the structure as drawn. Read-outs that look alike come from different tables or passages of the source.

Tests used:
[1] = system: Enterococcus faecalis KCTC 5191; assay: Antibacterial susceptibility, broth microdilution MIC; type: cell-based; details: KCTC5191, 24-h incubation at 37 °C
Experimental: (§1) Whole-cell antimicrobial activities were determined using a broth microdilution method described previously. Most of the test strains were grown to mid-log phase in Mueller–Hinton broth and diluted 1,000-fold in the same medium. Cells (10^5/mL) were dispensed at 0.2 mL/well in 96-well microtiter plates. Streptococcus pneumonia and Acinetobacter baumanii were grown in Todd–Hewitt medium and nutrient broth, respectively. […]. Cells were treated with 0.05% DMSO as a vehicle control. The MICs were determined in triplicate by serial two-fold dilutions of the test compounds. […] Bacterial growth was determined by measuring the absorption at 650 nm using a microtiter enzyme-linked immunosorbent assay (ELISA) reader (Molecular Devices Corporation, Sunnyvale, CA, USA).

[2] = system: E. coli CCARM 1356; assay: as above; type: cell-based; details: Escherichia coli, CCARM1356, 24-h incubation at 37 °C
Experimental: as §1

[3] = system: E. coli KCTC 1682; assay: as above; type: cell-based; details: Escherichia coli
Experimental: as §1

[4] = system: MRSA CCARM 3506; assay: as above; type: cell-based; details: Staphylococcus aureus, 24-h incubation at 37 °C
Experimental: as §1

[5] = system: Pseudomonas aeruginosa KCTC 2004; assay: as above; type: cell-based; details: for MIC: KCTC2004, Pseudomonas aeruginosa KCTC 2004, 24-h incubation at 37 °C; for antibacterial activities against P. aeruginosa: in words
Experimental: as §1

[6] = system: QRSA CCARM 3519; assay: as above; type: cell-based; details: Staphylococcus aureus, CCARM3519; QRSA CCARM 3519; 24-h incubation at 37 °C; read-out: MIC
Experimental: as §1

[7] = system: Klebsiella pneumoniae KCTC 22057; assay: as above; type: cell-based; details: for MIC: KCTC22057, Klebsiella pneumoniae KCTC 22057, 24-h incubation at 37 °C; for growth inhibition of K. pneumonia: at 32 μg/mL
Experimental: as §1

[8] = system: MRSA CCARM 3167; assay: as above; type: cell-based; details: Staphylococcus aureus, 24-h incubation at 37 °C
Experimental: as §1

[9] = system: Streptococcus pneumonia KCTC 5412; assay: as above; type: cell-based; details: Streptococcus pneumoniae, KCTC5412, Todd–Hewitt medium, 24-h incubation at 37 °C
Experimental: as §1

[10] = system: Acinetobacter baumannii KCTC 2508; assay: as above; type: cell-based; details: KCTC2508, nutrient broth, 24-h incubation at 37 °C
Experimental: as §1

[11] = system: QRSA CCARM 3505; assay: as above; type: cell-based; details: Staphylococcus aureus, CCARM3505; QRSA CCARM 3505; 24-h incubation at 37 °C; read-out: MIC
Experimental: as §1

[12] = system: Staphylococcus aureus RN 4220; assay: as above; type: cell-based; details: RN4220, 24 h
Experimental: Whole-cell antimicrobial activities were determined using a broth microdilution method described previously. Most of the test strains were grown to mid-log phase in Mueller–Hinton broth and diluted 1,000-fold in the same medium. Cells (10^5/mL) were dispensed at 0.2 mL/well in 96-well microtiter plates. Streptococcus pneumonia and Acinetobacter baumanii were grown in Todd–Hewitt medium and nutrient broth, respectively. […] Cells were treated with 0.05% DMSO as a vehicle control. The MICs were determined in triplicate by serial two-fold dilutions of the test compounds. […] Bacterial growth was determined by measuring the absorption at 650 nm using a microtiter enzyme-linked immunosorbent assay (ELISA) reader (Molecular Devices Corporation, Sunnyvale, CA, USA).

[13] = biological target: T1, E. coli DNA gyrase (Escherichia coli, UniProt P0AES4+P0AES6); assay: DNA gyrase supercoiling assay; type: biochemical; details: relaxed plasmid, 37 °C for 30 min, agarose gel band densities; read-out: IC50, inhibition of the supercoiling activity of E. coli DNA gyrase
T1 construct: purchased TopoGEN TG2001G
Experimental: The inhibitory activities of coralmycins on the supercoiling activity of DNA gyrase were investigated using a ‘Purified E. coli DNA Gyrase Drug Screening Kit’ (TopoGEN #TG2001G, Buena Vista, CO, USA). […] The reaction was terminated by the addition of 2 μL of 10% (w/v) SDS and 2 μL of 10× DNA gel loading dye (bromophenol blue). Then, 20 μL of chloroform:isoamyl alcohol (24:1 mixture) was added, and the mixture was vortexed and then centrifuged. The samples in the blue phase were run on 1% (w/v) agarose gel and were visualized using ethidium bromide. All reactions were performed in triplicate. To calculate the IC50 values, the band densities were measured using ImageJ (National Institutes of Health, Bethesda, Maryland, MD, USA).

[14] = KCTC1682, 24-h incubation at 37 °C, Table 6 and Table S1, read-out: MIC
[15] = KCTC1682, 24 h, Table 7, read-out: MIC, antibacterial activity on E. coli KCTC 1682
[16] = KCTC1682, Table 7, read-out: MIC, antibacterial activity on E. coli KCTC 1682

T1 sequence (P0AES4 whole entry, one chain of several): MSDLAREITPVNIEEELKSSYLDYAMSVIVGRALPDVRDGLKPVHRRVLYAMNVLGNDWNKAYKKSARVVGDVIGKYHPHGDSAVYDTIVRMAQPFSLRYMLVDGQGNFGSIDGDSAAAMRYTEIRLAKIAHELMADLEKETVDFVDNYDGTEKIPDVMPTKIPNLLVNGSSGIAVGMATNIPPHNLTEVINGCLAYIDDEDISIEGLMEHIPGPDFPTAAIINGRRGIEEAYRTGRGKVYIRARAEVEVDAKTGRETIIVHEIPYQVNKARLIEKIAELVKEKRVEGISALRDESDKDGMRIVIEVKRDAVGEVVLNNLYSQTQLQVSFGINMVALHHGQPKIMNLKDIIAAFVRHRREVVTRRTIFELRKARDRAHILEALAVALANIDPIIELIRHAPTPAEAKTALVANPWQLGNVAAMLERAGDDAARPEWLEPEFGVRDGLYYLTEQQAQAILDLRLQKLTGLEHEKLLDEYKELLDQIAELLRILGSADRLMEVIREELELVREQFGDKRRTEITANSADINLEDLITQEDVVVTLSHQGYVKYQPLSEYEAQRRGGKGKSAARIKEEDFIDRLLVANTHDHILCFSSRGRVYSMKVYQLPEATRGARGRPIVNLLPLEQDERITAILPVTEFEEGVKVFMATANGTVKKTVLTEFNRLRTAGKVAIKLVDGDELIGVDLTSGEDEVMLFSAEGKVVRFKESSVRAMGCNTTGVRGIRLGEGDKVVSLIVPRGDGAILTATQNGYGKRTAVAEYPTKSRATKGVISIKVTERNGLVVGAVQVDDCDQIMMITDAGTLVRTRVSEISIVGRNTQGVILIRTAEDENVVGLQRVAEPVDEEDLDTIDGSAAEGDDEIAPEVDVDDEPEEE

Compound | MIC [1] [µg/mL] | MIC [2] [µg/mL] | MIC [3, 14] [µg/mL] | MIC [4] [µg/mL] | MIC [5] [µg/mL] | MIC [6] [µg/mL] | MIC [7] [µg/mL] | MIC [8] [µg/mL] | MIC [9] [µg/mL] | MIC [10] [µg/mL] | MIC [11] [µg/mL] | MIC [12] [µg/mL] | MIC [3, 15] [µg/mL] | antibacterial activities against P. aeruginosa [5] | growth inhibition of K. pneumonia [7] | IC50 [13] [µM] | MIC [3, 16] [µg/mL]
CCOc1c(NC(=O)c2ccc(N)cc2)ccc(C(=O)Nc2ccc(C(=O)O)cc2OC(C)C)c1O [Compound 6, Coralmycin H] | > 32 | > 32 | > 32 | > 32 | > 32 | > 32 | > 32 | > 32 | > 32 | > 32 | > 32 | > 32 | – | – | – | – | –
CCOc1cc(C(=O)O)ccc1NC(=O)c1ccc(NC(=O)c2ccc(N)cc2)c(OC(C)C)c1O [Compound 7, Coralmycin I] | > 32 | > 32 | > 32 | > 32 | > 32 | > 32 | > 32 | > 32 | > 32 | > 32 | > 32 | > 32 | – | – | – | – | –
COc1cc(C(=O)O)ccc1NC(=O)c1ccc(NC(=O)c2ccc(NC(=O)[C@@H](NC(=O)c3ccc(NC(=O)c4ccc([N+](=O)[O-])cc4)cc3)[C@@H](OC)C(N)=O)cc2)c(OC(C)C)c1O [Compound 8, cystobactamid 891-2] | 1 (≈ 1.12 µM) | 0.5 (≈ 0.561 µM) | 0.25 (≈ 0.28 µM) | 0.125 (≈ 0.14 µM) | 4 (≈ 4.49 µM) | 1 (≈ 1.12 µM) | > 32 | 0.5 (≈ 0.561 µM) | 2 (≈ 2.24 µM) | 1 (≈ 1.12 µM) | 2 (≈ 2.24 µM) | 0.25 (≈ 0.28 µM) | 0.25 (≈ 0.28 µM) | weak antibacterial activities | did not inhibit the growth | 0.05 | –
CCOc1cc(C(=O)O)ccc1NC(=O)c1ccc(NC(=O)c2ccc(NC(=O)[C@@H](NC(=O)c3ccc(NC(=O)c4ccc([N+](=O)[O-])cc4)cc3)[C@@H](OC)C(N)=O)cc2)c(OC(C)C)c1O [Compound 9, cystobactamid 905-2] | 0.5 (≈ 0.552 µM) | 1 (≈ 1.1 µM) | 0.5 (≈ 0.552 µM) | 0.25 (≈ 0.276 µM) | 8 (≈ 8.83 µM) | 1 (≈ 1.1 µM) | > 32 | 0.25 (≈ 0.276 µM) | 1 (≈ 1.1 µM) | 0.5 (≈ 0.552 µM) | 2 (≈ 2.21 µM) | 0.125 (≈ 0.138 µM) | 0.25 (≈ 0.276 µM) | weak antibacterial activities | did not inhibit the growth | 0.13 | –
CO[C@@H](C(N)=O)[C@H](NC(=O)c1ccc(NC(=O)c2ccc([N+](=O)[O-])cc2)cc1)C(=O)Nc1ccc(C(=O)Nc2ccc(C(=O)Nc3ccc(C(=O)O)cc3OC(C)C)c(O)c2OC(C)C)cc1 [Compound 11, cystobactamid 919-2, reference compound] | 0.25 (≈ 0.272 µM) | 2 (≈ 2.17 µM) | 1 (≈ 1.09 µM) | 0.25 (≈ 0.272 µM) | 4 (≈ 4.35 µM) | 1 (≈ 1.09 µM) | 4 (≈ 4.35 µM) | 0.25 (≈ 0.272 µM) | 1 (≈ 1.09 µM) | 2 (≈ 2.17 µM) | 1 (≈ 1.09 µM) | 0.125 (≈ 0.136 µM) | – | – | – | 0.95 | 1 (≈ 1.09 µM)
CO[C@H](C(=O)O)[C@H](NC(=O)c1ccc(NC(=O)c2ccc([N+](=O)[O-])cc2)cc1)C(=O)Nc1ccc(C(=O)Nc2ccc(C(=O)Nc3ccc(C(=O)O)cc3OC(C)C)c(O)c2OC(C)C)cc1 [Compound 13, coralmycin B, reference compound] | 4 (≈ 4.34 µM) | 16 (≈ 17.4 µM) | 4 (≈ 4.34 µM) | 1 (≈ 1.09 µM) | > 16 | – | > 16 | 1 (≈ 1.09 µM) | > 16 | 4 (≈ 4.34 µM) | – | 2 (≈ 2.17 µM) | – | – | – | 1.07 | 4 (≈ 4.34 µM)
